# Laboratory results published in publication PMC9403976, “Elucidating the path to Plasmodium prolyl-tRNA synthetase inhibitors that overcome halofuginone resistance” (Nature Communications, 2022).
# Values joined by “and” are separate entries in the source; they are usually repeats but may differ in a detail not shown here. Identical values can stand only once. Like-named read-outs stand apart in the source and are kept apart here.
# Key:
# PfcProRS = molecular target: T1, PfcProRS (Plasmodium falciparum, UniProt Q8I5R7); type: binding; conditions: for dose-response signal (normalized), SI Fig 8: single replicates
# T1 construct: made in house; host or cells: E. coli SoluBL-21
# HsProRS = HsProRS (Homo sapiens, UniProt P07814); assay: TR-FRET ligand displacement assay with tracer MAT379 (CoraFluor-1-Halo and anti-His6 antibody formats); type: binding; set-up: made in house; host or cells: E. coli SoluBL-21; conditions: for TR-FRET dose-response, normalized signal (SI Fig 11): individual replicates
# P. falciparum Dd2-2D4 = assay: P. falciparum asexual blood stage (ABS) growth assay, SYBR Green, 72 h, wild-type parasites; type: cell-based, Plasmodium falciparum; conditions: Log[inhibitor] (M) -7.408
# HsProRS, sequence (P07814 996-1512): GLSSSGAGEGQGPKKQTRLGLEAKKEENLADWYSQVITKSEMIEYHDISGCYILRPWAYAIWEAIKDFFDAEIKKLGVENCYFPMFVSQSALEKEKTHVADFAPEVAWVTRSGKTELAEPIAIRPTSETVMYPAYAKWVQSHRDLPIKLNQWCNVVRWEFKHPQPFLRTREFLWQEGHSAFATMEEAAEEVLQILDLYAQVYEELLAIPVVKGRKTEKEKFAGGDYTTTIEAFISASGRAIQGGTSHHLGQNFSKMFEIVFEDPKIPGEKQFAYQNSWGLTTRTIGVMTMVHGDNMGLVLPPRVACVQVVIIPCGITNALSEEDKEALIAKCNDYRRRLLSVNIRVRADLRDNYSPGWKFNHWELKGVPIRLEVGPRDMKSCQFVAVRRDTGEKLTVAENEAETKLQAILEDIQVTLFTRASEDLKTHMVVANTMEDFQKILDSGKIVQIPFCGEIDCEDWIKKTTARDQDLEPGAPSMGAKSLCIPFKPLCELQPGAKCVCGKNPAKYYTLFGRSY
# T1 sequence (Q8I5R7 249-746): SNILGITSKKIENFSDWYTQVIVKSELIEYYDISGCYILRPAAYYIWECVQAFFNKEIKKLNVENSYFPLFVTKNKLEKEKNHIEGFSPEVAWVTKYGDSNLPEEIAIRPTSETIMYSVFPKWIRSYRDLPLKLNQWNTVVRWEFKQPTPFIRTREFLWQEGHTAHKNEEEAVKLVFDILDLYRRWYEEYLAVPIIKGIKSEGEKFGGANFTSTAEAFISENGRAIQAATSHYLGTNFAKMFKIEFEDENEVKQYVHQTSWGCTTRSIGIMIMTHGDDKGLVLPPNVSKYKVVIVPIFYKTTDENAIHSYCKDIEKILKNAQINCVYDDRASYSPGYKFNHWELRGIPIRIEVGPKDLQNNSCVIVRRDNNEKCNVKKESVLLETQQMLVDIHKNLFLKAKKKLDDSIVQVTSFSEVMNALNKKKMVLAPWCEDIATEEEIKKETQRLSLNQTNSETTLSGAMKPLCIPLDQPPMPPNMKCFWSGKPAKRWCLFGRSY
smiles,measurement,setting,value
O=C(NC1Cc2ccccc2C1)c1nccnc1NC(=O)N1CCNCC1 [compound 14],"dose-response signal (normalized), SI Fig 8",PfcProRS; Log[inhibitor] (M) -5.000,3.52E-01 and 3.02E-01 and 4.80E-01
same,"dose-response signal (normalized), SI Fig 8",PfcProRS; Log[inhibitor] (M) -5.301,6.97E-01 and 5.97E-01 and 7.91E-01
same,"dose-response signal (normalized), SI Fig 8",PfcProRS; Log[inhibitor] (M) -5.601,7.61E-01 and 7.19E-01 and 8.51E-01
same,"dose-response signal (normalized), SI Fig 8",PfcProRS; Log[inhibitor] (M) -5.904,9.39E-01 and 1.01E+00 and 9.69E-01
same,"dose-response signal (normalized), SI Fig 8",PfcProRS; Log[inhibitor] (M) -6.208,9.51E-01 and 9.80E-01 and 1.13E+00
same,"dose-response signal (normalized), SI Fig 8",PfcProRS; Log[inhibitor] (M) -6.509,1.06E+00 and 1.12E+00 and 9.92E-01
same,"dose-response signal (normalized), SI Fig 8",PfcProRS; Log[inhibitor] (M) -6.796,9.94E-01 and 1.03E+00 and 9.99E-01
same,"dose-response signal (normalized), SI Fig 8",PfcProRS; Log[inhibitor] (M) -7.108,1.00E+00 and 1.01E+00 and 1.05E+00
same,"dose-response signal (normalized), SI Fig 8",PfcProRS; Log[inhibitor] (M) -7.409,1.05E+00 and 9.56E-01 and 1.00E+00
same,"dose-response signal (normalized), SI Fig 8",PfcProRS; Log[inhibitor] (M) -7.710,1.05E+00 and 1.12E+00 and 1.08E+00
same,"dose-response signal (normalized), SI Fig 8",PfcProRS; Log[inhibitor] (M) -8.000,9.77E-01 and 1.04E+00 (2×)
same,"dose-response signal (normalized), SI Fig 8",PfcProRS; Log[inhibitor] (M) -8.301,1.09E+00 and 1.08E+00 and 1.13E+00
same,"dose-response signal (normalized), SI Fig 8",PfcProRS; Log[inhibitor] (M) -8.602,9.19E-01 and 1.01E+00 and 1.04E+00
same,"dose-response signal (normalized), SI Fig 8",PfcProRS; Log[inhibitor] (M) -9.000,9.80E-01 and 1.02E+00 and 1.08E+00
same,"dose-response signal (normalized), SI Fig 8",PfcProRS; Log[inhibitor] (M) -9.301,1.02E+00 and 1.01E+00 and 8.73E-01
same,PfcProRS -- best Kd,"PfcProRS; SI Fig 16a, values on -log scale",5.788
same,IC50,HsProRS,> 10 µM
same,Kd,"HsProRS; HsProRS - best Kd, SI Fig 16a, values on -log scale",347 nM
same,"normalized TR-FRET ligand displacement signal, dose-response replicates (SI Fig 6)",HsProRS; Log[inhibitor] (M) -5.000,7.56E-01 and 7.38E-01 and 6.65E-01
same,"TR-FRET dose-response, normalized signal (SI Fig 11)",HsProRS; Log[inhibitor] (M) -5.000,5.37E-01 and 5.66E-01 and 5.12E-01
same,"normalized TR-FRET ligand displacement signal, dose-response replicates (SI Fig 6)",HsProRS; Log[inhibitor] (M) -5.301,8.27E-01 and 7.77E-01 and 8.29E-01
same,"TR-FRET dose-response, normalized signal (SI Fig 11)",HsProRS; Log[inhibitor] (M) -5.301,7.06E-01 and 7.34E-01 and 7.02E-01
same,"normalized TR-FRET ligand displacement signal, dose-response replicates (SI Fig 6)",HsProRS; Log[inhibitor] (M) -5.601,9.28E-01 and 8.85E-01 and 8.45E-01
same,"TR-FRET dose-response, normalized signal (SI Fig 11)",HsProRS; Log[inhibitor] (M) -5.601,8.30E-01 and 8.51E-01 and 8.70E-01
same,"normalized TR-FRET ligand displacement signal, dose-response replicates (SI Fig 6)",HsProRS; Log[inhibitor] (M) -5.904,9.66E-01 and 1.02E+00 and 8.66E-01
same,"TR-FRET dose-response, normalized signal (SI Fig 11)",HsProRS; Log[inhibitor] (M) -5.904,9.48E-01 and 8.82E-01 and 9.17E-01
same,"normalized TR-FRET ligand displacement signal, dose-response replicates (SI Fig 6)",HsProRS; Log[inhibitor] (M) -6.208,9.85E-01 and 9.86E-01 and 1.00E+00
same,"TR-FRET dose-response, normalized signal (SI Fig 11)",HsProRS; Log[inhibitor] (M) -6.208,9.32E-01 and 8.78E-01 and 9.58E-01
same,"normalized TR-FRET ligand displacement signal, dose-response replicates (SI Fig 6)",HsProRS; Log[inhibitor] (M) -6.509,1.15E+00 and 1.03E+00 and 9.65E-01
same,"TR-FRET dose-response, normalized signal (SI Fig 11)",HsProRS; Log[inhibitor] (M) -6.509,9.64E-01 and 9.63E-01 and 9.66E-01
same,"normalized TR-FRET ligand displacement signal, dose-response replicates (SI Fig 6)",HsProRS; Log[inhibitor] (M) -6.796,1.11E+00 and 1.13E+00 and 1.12E+00
same,"TR-FRET dose-response, normalized signal (SI Fig 11)",HsProRS; Log[inhibitor] (M) -6.796,1.02E+00 and 9.73E-01 and 9.90E-01
same,"normalized TR-FRET ligand displacement signal, dose-response replicates (SI Fig 6)",HsProRS; Log[inhibitor] (M) -7.108,1.08E+00 and 1.05E+00 and 9.83E-01
same,"TR-FRET dose-response, normalized signal (SI Fig 11)",HsProRS; Log[inhibitor] (M) -7.108,9.95E-01 and 1.03E+00 and 9.34E-01
same,"normalized TR-FRET ligand displacement signal, dose-response replicates (SI Fig 6)",HsProRS; Log[inhibitor] (M) -7.409,9.81E-01 and 8.66E-01 and 9.44E-01
same,"TR-FRET dose-response, normalized signal (SI Fig 11)",HsProRS; Log[inhibitor] (M) -7.409,9.68E-01 and 9.66E-01 and 9.87E-01
same,"normalized TR-FRET ligand displacement signal, dose-response replicates (SI Fig 6)",HsProRS; Log[inhibitor] (M) -7.710,1.08E+00 and 1.01E+00 (2×)
same,"TR-FRET dose-response, normalized signal (SI Fig 11)",HsProRS; Log[inhibitor] (M) -7.710,1.03E+00 (2×) and 9.36E-01
same,"normalized TR-FRET ligand displacement signal, dose-response replicates (SI Fig 6)",HsProRS; Log[inhibitor] (M) -8.000,9.08E-01 and 9.09E-01 and 9.75E-01
same,"TR-FRET dose-response, normalized signal (SI Fig 11)",HsProRS; Log[inhibitor] (M) -8.000,1.02E+00 and 1.03E+00 and 9.52E-01
same,"normalized TR-FRET ligand displacement signal, dose-response replicates (SI Fig 6)",HsProRS; Log[inhibitor] (M) -8.301,9.22E-01 and 9.86E-01 and 9.29E-01
same,"TR-FRET dose-response, normalized signal (SI Fig 11)",HsProRS; Log[inhibitor] (M) -8.301,1.02E+00 and 9.93E-01 and 9.56E-01
same,"normalized TR-FRET ligand displacement signal, dose-response replicates (SI Fig 6)",HsProRS; Log[inhibitor] (M) -8.602,9.82E-01 and 1.05E+00 and 8.99E-01
same,"TR-FRET dose-response, normalized signal (SI Fig 11)",HsProRS; Log[inhibitor] (M) -8.602,9.98E-01 and 9.57E-01 and 9.65E-01
same,"normalized TR-FRET ligand displacement signal, dose-response replicates (SI Fig 6)",HsProRS; Log[inhibitor] (M) -9.000,1.07E+00 and 1.04E+00 and 1.00E+00
same,"TR-FRET dose-response, normalized signal (SI Fig 11)",HsProRS; Log[inhibitor] (M) -9.000,1.00E+00 and 9.49E-01 and 9.70E-01
same,"normalized TR-FRET ligand displacement signal, dose-response replicates (SI Fig 6)",HsProRS; Log[inhibitor] (M) -9.301,9.76E-01 and 9.94E-01 and 1.01E+00
same,"TR-FRET dose-response, normalized signal (SI Fig 11)",HsProRS; Log[inhibitor] (M) -9.301,9.76E-01 and 1.00E+00 and 9.87E-01
same,HsProRS % signal at 10 μM,"HsProRS; no added proline/ATP (-), 10 μM",53.8%
same,dose-response value per replicate (SI Fig 2g),P. falciparum Dd2-2D4,106
